Assays:
C57BL/6JRj male mice = experiment: Enzymatic NAD+ measurement in mouse liver after oral gavage; type: in vivo; details: equimolar of 300 mg/kg trigonelline, 120 minutes (FIG. 5)
Description: 10 weeks C57BL/6JRj male mice received trigonelline (sigma #T5509) or fenugreek seed extract enriched in trigonelline (40.45% trigonelline) by oral gavage (equimolar of 300 mg/kg trigonelline, n=8/group). After 120 minutes treatment, the liver was harvested and flash frozen in liquid nitrogen. NAD^+ was measured in liver using an enzymatic method adapted from Dall, M., et al., Mol Cell Endocrinol, 2018. 473: p. 245-256.

[1] = system: Human Skeletal Muscle Myotubes (HSMM); experiment: Colorimetric NAD+ quantification in differentiated human primary myoblasts; type: cell-based; details: 16 h, different doses (FIG. 4)
Description: After one day, the differentiation is induced by a medium change for 4 days. Cells were treated with synthetic trigonelline monohydrate (FIG. 4A) or with Fenugreek seed extract enriched in trigonelline containing 40.45% trigonelline (FIG. 4B) for 16 h at difference doses. NAD^+ was measured using colorimetric NAD^+ quantification assay (Biovision NAD^+/NADH Quantitation Colorimetric Kit #k337-100).

C. elegans [2] = details: 1 mM, day 8 and day 11 old worms, vs control (FIG. 7D)
Text: 45 to 60 worms per condition were manually scored for mobility after poking. Worms that were unable to respond to any repeated stimulation were scored as dead. […] Trigonelline treatment and experimental measurements were started at Day 1 of wild type N2 worm adulthood, in a regimen of chronic exposure til experiments termination.

C. elegans [3] = details: 1 mM, chronic exposure from Day 1 adulthood, wild type N2 (FIG. 7A)
Description: Worm lifespan tests were performed using about 100 animals per condition and scored manually every other day. Trigonelline treatment and experimental measurements were started at Day 1 of wild type N2 worm adulthood, in a regimen of chronic exposure till experiments termination.

C. elegans [4] = system: C. elegans
Description: C. elegans mobility test was performed using the Movement Tracker software (Mouchiroud, L. et al. Curr Protoc Neurosci 77, 8.37.1-8.37.21 (2016)). The experiments were repeated at least twice. Trigonelline treatment and experimental measurements were started at Day 1 of wild type N2 worm adulthood, in a regimen of chronic exposure till experiments termination.

C. elegans [5] = details: 1 mM trigonelline chloride, day 8 old worms, vs control (FIG. 8)
Description: Absolute quantification of the mtDNA copy number in wild type N2 worms was performed by real-time PCR. Relative values for nduo-1, and act-1 were compared within each sample to generate a ratio representing the relative level of mitochondrial DNA per nuclear genome. The average of at least two technical repeats was used for each biological data point. Each experiment was performed on at least ten independent biological samples (individual worms). Trigonelline treatment with 1 mM trigonelline chloride and experimental measurements were started at Day 1 of wild type N2 worm adulthood, in a regimen of chronic exposure till experiments termination.

[6] = system: Human Skeletal Muscle Myotubes (HSMM); details: 500 μM, 6 h, relative to control, LC-MS (FIG. 2A)
Description: Human primary myoblasts from two different donors were seeded in 6 well plates at a density of 200′000 cells per well in skeletal muscle growth medium (SKM-M, AMSbio). After one day, the differentiation was induced by a medium change for 4 days using differentiation culture medium (Gibco No. 31330-028). Cells were treated with isotopically labelled trigonelline (^13C carbonyl; 3^2H on methyl) for 6 h.
Cell extracts were separated on a Vanquish UHPLC+focused LC system (Thermo Scientific) with a hydrophilic liquid chromatography (HILIC) iHILIC-Fusion(P) column (Hilicon) carrying the dimensions 150×2.1 mm, 5 μm and a guard column (iHILIC-fusion(P), Hilicon) in front. The separation of metabolites was achieved by applying a linear solvent gradient in normal phase at 0.25 mL/min flow rate and 35° C. of temperature.
The eluting metabolites were analyzed with an Orbitrap Fusion Lumos mass spectrometer (Thermo Scientific) with a heated electrospray ionization (H-ESI) source in positive and negative mode at a resolution of 60,000 at m/z of 200. Instrument control and data analysis were conducted using Xcalibur (Thermo Scientific).

[7] = system: RW1596 (myo-3p::GFP) worms; details: 1 mM trigonelline chloride, 11 day old worms vs age matched control
Description: RW1596 (myo-3p::GFP) worms were collected at Day 1 (young adults) and at Day 11 (aged animals) for muscle integrity assessment. Worms were immobilized with tetramisole and analyzed by confocal microscopy, to assess the muscle fibers morphology shown by GFP fluorescence imaging. Trigonelline treatment with 1 mM trigonelline chloride and experimental measurements were started at Day 1 of wild type N2 worm adulthood, in a regimen of chronic exposure till experiments termination.

C[n+]1cccc(C(=O)O)c1.[OH-] [chemically synthesized trigonelline]
NAD+ content in the liver compared to the control (C57BL/6JRj male mice): significant increase
NAD+ content compared to the control [1]: significant increase

C[n+]1cccc(C(=O)O)c1 [trigonelline chloride]
Stimulated mobility score (worms responsive to a physical stimulus) (C. elegans [2]): more responsive
Increase in lifespan (C. elegans [3]): 21%
Distance travelled in advanced aging phase compared to control (C. elegans [4]; 1 mM (FIG. 7C)): significantly increased
Mean speed compared to the control (C. elegans [4]; 1 mM, from day 1 adulthood (FIG. 7B)): increased

C[n+]1cccc(C(=O)[O-])c1 [trigonelline, 1-methylpyridin-1-ium-3-carboxylate]
Mitochondrial expression relative to nuclear expression (nduo-1/act-1, mt/nDNA) (C. elegans [5]): higher
NAD+ levels [6]: enhancement
Myofibrillar structure (GFP-tagged myosin) [7]: improved more organized myofibrillar structure

— patent US12551472B2, “Compositions and methods using trigonelline to produce intracellular nicotinamide adenine dinucleotide (NAD+) for treating or preventing physiological disorders or states” (SOCIETE DES PRODUITS NESTLE S.A., priority 2019, dated 2026)
